Converted amounts (≈) assume the structure as drawn.

Format in all cases: functional
For assay [1], the system named is Mycolicibacterium phlei. Description: Antimycobacterial activity against Mycobacterium phlei NCIM 2240 assessed as growth inhibition after 24 hr by agar well diffusion method. To be noted: NCIM 2240, 24 h. On the technique in general: A growth-free zone around the sample is the usual read-out of agar diffusion tests.
Assay [2] has as its system Mycobacterium tuberculosis. Kind of assay: Antimycobacterial activity against Mycobacterium tuberculosis MTCC 300 assessed as growth inhibition at 1 mg/ml after 24 hr by agar well diffusion method. As to conditions: MTCC 300, 24 h, read-out: DIZ.
Assay [3] has as its system Mycolicibacterium phlei. Kind of assay: Antimycobacterial activity against Mycobacterium phlei NCIM 2240 assessed as growth inhibition at 1 mg/ml after 24 hr by agar well diffusion method. As to conditions: NCIM 2240, 24 h, read-out: DIZ.
In assay [4] the test system is Mycolicibacterium smegmatis. Kind of assay: Antimycobacterial activity against Mycobacterium smegmatis NCIM 5138 assessed as growth inhibition at 0.5 mg/ml after 24 hr by agar well diffusion method. To be noted: NCIM 5138, 24 h, read-out: DIZ.
Assay [5] relates to Mycolicibacterium smegmatis. Description: Antimycobacterial activity against Mycobacterium smegmatis NCIM 5138 assessed as growth inhibition at 0.1 mg/ml after 24 hr by agar well diffusion method. As to conditions: NCIM 5138, 24 h, read-out: DIZ.
Assay [6] concerns Mycolicibacterium smegmatis. Description: Antimycobacterial activity against Mycobacterium smegmatis NCIM 5138 assessed as growth inhibition after 24 hr by agar well diffusion method. To be noted: NCIM 5138, 24 h.
In assay [7] the test system is Mycolicibacterium phlei. Description: Antimycobacterial activity against Mycobacterium phlei NCIM 2240 assessed as growth inhibition at 0.5 mg/ml after 24 hr by agar well diffusion method. To be noted: NCIM 2240, 24 h, read-out: DIZ.
In assay [8] the test system is Mycolicibacterium phlei. Description: Antimycobacterial activity against Mycobacterium phlei NCIM 2240 assessed as growth inhibition at 0.1 mg/ml after 24 hr by agar well diffusion method. To be noted: NCIM 2240, 24 h, read-out: DIZ.
The subject of assay [9] is Mycobacterium tuberculosis. Description: Antimycobacterial activity against Mycobacterium tuberculosis MTCC 300 assessed as growth inhibition after 24 hr by agar well diffusion method. To be noted: MTCC 300, 24 h.
Assay [10] relates to Mycolicibacterium smegmatis. Description: Antimycobacterial activity against Mycobacterium smegmatis NCIM 5138 assessed as growth inhibition at 1 mg/ml after 24 hr by agar well diffusion method. As to conditions: NCIM 5138, 24 h, read-out: DIZ.
Assay [11] concerns Mycobacterium tuberculosis. Description: Antimycobacterial activity against Mycobacterium tuberculosis MTCC 300 assessed as growth inhibition at 0.5 mg/ml after 24 hr by agar well diffusion method. To be noted: MTCC 300, 24 h, read-out: DIZ.
Assay [12] has as its system Mycobacterium tuberculosis. Description: Antimycobacterial activity against Mycobacterium tuberculosis MTCC 300 assessed as growth inhibition at 0.1 mg/ml after 24 hr by agar well diffusion method. To be noted: MTCC 300, 24 h, read-out: DIZ.

Turning to `Cc1nn(-c2ccccc2)c2c1C(c1cn(-c3ccccc3)nc1-c1ccc(Cl)cc1)C1=C(NC(C)(c3ccc(O)c(Cl)c3O)NC1=O)O2` (stereo not given), the MIC (usually the least concentration at which growth counts as inhibited) in the assay with Mycolicibacterium phlei [1] was 90 µg/mL (≈ 130 µM); in [6], 70 µg/mL (≈ 101 µM); in assay [9] it was 1000 µg/mL (≈ 1450 µM). Moreover, the results for the zone of inhibition at 1000 µg/mL (in assay [2]; in the assay on Mycolicibacterium phlei [3]; in assay [10]) were 1.5 mm, 6.5 mm and 6.8 mm, respectively. In addition, the zone of inhibition at 500 µg/mL is 5.2 mm in assay [4] and 4 mm with Mycolicibacterium phlei [7]. For the same molecule, the zone of inhibition at 100 µg/mL in assay [5] came to 3.8 mm; in the assay with Mycolicibacterium phlei [8], 2.5 mm.
Turning to `Cc1nn(-c2ccccc2)c2c1C(c1cn(-c3ccccc3)nc1-c1ccc(Cl)cc1)C1=C(NC(C)(c3cc(Cl)cc(I)c3O)NC1=O)O2` (stereo not given), the MIC in the assay on Mycolicibacterium phlei [1] worked out at 50 µg/mL (≈ 62.4 µM); in assay [6], 70 µg/mL (≈ 87.3 µM). For the same molecule, the zone of inhibition at 1000 µg/mL in the assay with Mycolicibacterium phlei [3] is 2.8 mm; in [10] it was 5.4 mm. Further, the zone of inhibition at 500 µg/mL in assay [4] was determined as 5 mm; with Mycolicibacterium phlei [7], 1.5 mm. Besides, in assay [5], the zone of inhibition at 100 µg/mL was 4.2 mm.
For `Cc1nn(-c2ccccc2)c2c1C(c1cn(-c3ccccc3)nc1-c1ccc(F)cc1)C1=C(NC(C)(c3cc(Cl)ccc3O)NC1=O)O2` (stereo not given), in assay [4], the zone of inhibition at 500 µg/mL came to 2.2 mm. Also, the zone of inhibition at 100 µg/mL in assay [5] amounted to 1.9 mm. In addition, the MIC in assay [6] turned out to be 100 µg/mL (≈ 152 µM). Moreover, the zone of inhibition at 1000 µg/mL in assay [10] came to 3.2 mm.
On to `Cc1nn(-c2ccccc2)c2c1C(c1cn(-c3ccccc3)nc1-c1ccc(F)cc1)C1=C(NC(C)(c3ccc(O)cc3O)NC1=O)O2` (stereo not given), for which the MIC came to 50 µg/mL (≈ 78 µM) in the assay with Mycolicibacterium phlei [1] and 40 µg/mL (≈ 62.4 µM) in assay [6]. Moreover, the figures for the zone of inhibition at 1000 µg/mL (in the assay on Mycolicibacterium phlei [3]; in assay [10]) were 2.2 mm and 6.5 mm, respectively. The zone of inhibition at 500 µg/mL came to 5.5 mm in [4] and 1.5 mm with Mycolicibacterium phlei [7]. Further, the zone of inhibition at 100 µg/mL in assay [5] came out at 4.1 mm.
For `Cc1nn(-c2ccccc2)c2c1C(c1cn(-c3ccccc3)nc1-c1ccc(F)cc1)C1=C(NC(C)(c3ccc(O)c(Cl)c3O)NC1=O)O2` (stereo not given), the values for the MIC (with Mycolicibacterium phlei [1]; in assay [6]; in [9]) were 50 µg/mL (≈ 74.1 µM), 70 µg/mL (≈ 104 µM) and 1000 µg/mL (≈ 1480 µM), respectively. For the same molecule, the zone of inhibition at 1000 µg/mL in assay [2] turned out to be 2 mm; with Mycolicibacterium phlei [3] it was 2.5 mm; in [10], 11.5 mm. Further, the zone of inhibition at 500 µg/mL was 7.6 mm in assay [4] and 1.5 mm in the assay on Mycolicibacterium phlei [7]. Besides, the figures for the zone of inhibition at 100 µg/mL (in [5]; with Mycolicibacterium phlei [8]) were 4.5 mm and 3.4 mm, respectively.
Consider `Cc1nn(-c2ccccc2)c2c1C(c1cn(-c3ccccc3)nc1-c1ccc(F)cc1)C1=C(NC(C)(c3cc(Cl)cc(I)c3O)NC1=O)O2` (stereo not given), for which the MIC (in the assay with Mycolicibacterium phlei [1]; in [6]) was 60 µg/mL (≈ 76.4 µM) throughout. Moreover, the zone of inhibition at 1000 µg/mL with Mycolicibacterium phlei [3] was determined as 8.6 mm; in [10], 12 mm. For the same molecule, the zone of inhibition at 500 µg/mL in [4] is 9 mm; in the assay with Mycolicibacterium phlei [7], 7.1 mm. Further, the zone of inhibition at 100 µg/mL was determined as 5.6 mm in assay [5] and 5.8 mm with Mycolicibacterium phlei [8].
Regarding `COc1ccc(-c2nn(-c3ccccc3)cc2C2C3=C(NC(C)(c4cc(Cl)ccc4O)NC3=O)Oc3c2c(C)nn3-c2ccccc2)cc1` (stereo not given), the figures for the MIC (with Mycolicibacterium phlei [1]; in assay [6]) were 1000 µg/mL (≈ 1490 µM) and 90 µg/mL (≈ 134 µM), respectively. Further, the zone of inhibition at 1000 µg/mL was 2 mm in the assay on Mycolicibacterium phlei [3] and 5.2 mm in assay [10]. In addition, in assay [4], the zone of inhibition at 500 µg/mL stood at 4.2 mm. Also, the zone of inhibition at 100 µg/mL in assay [5] was 2.8 mm.
With `COc1ccc(-c2nn(-c3ccccc3)cc2C2C3=C(NC(C)(c4cc(Cl)cc(I)c4O)NC3=O)Oc3c2c(C)nn3-c2ccccc2)cc1` (stereo not given), the MIC was 70 µg/mL (≈ 87.8 µM) in the assay on Mycolicibacterium phlei [1], 50 µg/mL (≈ 62.7 µM) in assay [6] and 100 µg/mL (≈ 125 µM) in assay [9]. In addition, the zone of inhibition at 1000 µg/mL in [2] is 3.6 mm; in the assay with Mycolicibacterium phlei [3], 8.8 mm; in assay [10] it was 12 mm. Besides, the values for the zone of inhibition at 500 µg/mL (in assay [4]; with Mycolicibacterium phlei [7]; in assay [11]) were 10.8 mm, 6.2 mm and 2.5 mm, respectively. Further, the values for the zone of inhibition at 100 µg/mL (in assay [5]; in the assay with Mycolicibacterium phlei [8]; in assay [12]) were 8 mm, 4 mm and 2 mm, respectively.
`Cc1nn(-c2ccccc2)c2c1C(c1cn(-c3ccccc3)nc1-c1ccc(Cl)cc1)C1=C(NC(C)(c3cc(Cl)ccc3O)NC1=O)O2` (stereo not given): the MIC with Mycolicibacterium phlei [1] was determined as 100 µg/mL (≈ 148 µM); in assay [6] it was 100 µg/mL (≈ 148 µM); in assay [9], 1000 µg/mL (≈ 1480 µM). The zone of inhibition at 1000 µg/mL was determined as 1.9 mm in [2], 3.5 mm in the assay on Mycolicibacterium phlei [3] and 3.6 mm in [10]. The zone of inhibition at 500 µg/mL came out at 2.3 mm in assay [4] and 2.4 mm with Mycolicibacterium phlei [7]. In addition, the zone of inhibition at 100 µg/mL was determined as 1.5 mm in [5] and 2 mm with Mycolicibacterium phlei [8].
On to `Cc1nn(-c2ccccc2)c2c1C(c1cn(-c3ccccc3)nc1-c1ccc(Cl)cc1)C1=C(NC(C)(c3ccc(O)cc3O)NC1=O)O2` (stereo not given), for which the MIC came out at 70 µg/mL (≈ 107 µM) with Mycolicibacterium phlei [1] and 100 µg/mL (≈ 152 µM) in [6]. Also, the zone of inhibition at 1000 µg/mL is 4.5 mm in the assay on Mycolicibacterium phlei [3] and 3.2 mm in assay [10]. The zone of inhibition at 500 µg/mL in [4] was determined as 1.9 mm; in the assay with Mycolicibacterium phlei [7], 3.8 mm. Further, the results for the zone of inhibition at 100 µg/mL (in assay [5]; with Mycolicibacterium phlei [8]) were 1.6 mm and 2.5 mm, respectively.
Take `CO[C@H]1/C=C/O[C@@]2(C)Oc3c(C)c(O)c4c(O)c(c(/C=N/N5CCN(C)CC5)c(O)c4c3C2=O)NC(=O)/C(C)=C\C=C\[C@H](C)[C@H](O)[C@@H](C)[C@@H](O)[C@@H](C)[C@H](OC(C)=O)[C@@H]1C` [RIFAMPIN]: the MIC turned out to be 40 µg/mL (≈ 48.6 µM) in the assay with Mycolicibacterium phlei [1], 480 µg/mL (≈ 583 µM) in assay [6] and 280 µg/mL (≈ 340 µM) in [9].

The record behind these values is ChEMBL document CHEMBL3045649, “Green approach towards synthesis of substituted pyrazole-1,4-dihydro,9-oxa,1,2,6,8-tetrazacyclopentano[b]naphthalene-5-one derivatives as antimycobacterial agents” (2013).
